# Laboratory results published in patent US20030113330A1, “Methods for treating pulmonary fibrosis” (priority 1999, published 2003).
# Experiments:
# A549 cells = assay: Angiotensin II-induced apoptosis in A549 cells (nuclear fragmentation, PI); format: cell-based, human; settings: saralasin 50 ug/ml
# Protocol: Cell Culture. […] J. Physiol. Suppl. (Oct.) 261:110-117 (1991) and Uhal et al., Am. J. Physiol. 269:[…]-[…] (1995). […] J. Physiol. 272:[…]-[…] (1997). […] J. Physiol. Suppl. (October) 261:110-117 (1991). […] Detection of Apoptosis. […] J. Physiol. […] Assay of Annexin V binding by flow cytometry was performed essentially as described for human lung fibroblasts in Uhal, et al., Am. J. Physiol. 275:[…]-[…] (1998) after trypsinization of cells from culture vessels. Assay of Caspase-3 activity was performed on viable suspension cultures as reported in Uhal, et al., Am. J. Physiol. 275:[…]-1017 (1998). […] For microscopy, cells were cultured on glass cover slips, incubated with test reagents and fixed with 70% ethanol. The fixed cells were immunolabeled overnight at 4° C. with monoclonal antibodies to cytokeratins 7 and 19 (Chemicon International, Temecula, Calif.), and then for one hour at 37° C. with anti-mouse IgG-rhodamine and DNAse-free RNAse (Boehringer Mannheim, Indianapolis, Ind.) The cover slips were then rinsed in distilled water three times and mounted under Fluoromount Solution (Southern Biotechnology Associates, Birmingham, Ala.) containing 5 ug/ml propidium iodide. Photomicroscopy was performed as described in Uhal, et al., Am. J. Physiol. 275:[…]-1017 (1998). […] The absolute values for basal, i.e., 0.0 dose, apoptosis were: A549 serum-free, 2.29±0.33%; […] AEC serum-free: 1.87±0.41%; and AEC+FBS: 1.97±0.37%.
# primary rat AEC = assay: Angiotensin II-induced apoptosis in primary rat AEC (nuclear fragmentation, PI); format: cell-based; settings: ANGII 5.0 uM; saralasin 50 ug/ml, lisinopril 500 ng/ml
# Description: Cell Culture. The human lung adenocarcinoma cell line A549 was obtained from American Type Culture Collection and cultured in Ham's F12 medium supplemented with 10% fetal bovine serum (FBS). Primary alveolar epithelial cells were isolated from adult male Wistar rats as described in Uhal et al., Am. J. Physiol. Suppl. (Oct.) 261:110-117 (1991) and Uhal et al., Am. J. Physiol. 269:L819-L828 (1995). The primary cells were studied at day two of culture, a time at which they are type II cell-like by accepted morphologic and biochemical criteria, see Uhal, Am. J. Physiol. 272:L1031-L1045 (1997). […] J. Physiol. Suppl. (October) 261:110-117 (1991). All cells were seeded in 24-well or 6-well chambers, and all experiments were conducted at subconfluent densities of 80-90% in serum-free Ham's F12 medium. Test reagents were diluted with Ham's F12 medium and were applied for 20 h at 37° C. in a 5% CO2 incubator.
# Detection of Apoptosis. Detection of apoptotic cells with propidium iodide (PI) was conducted as described in Uhal, et al., Am. J. Physiol. 275:L1013-1017 (1998) following digestion of ethanol-fixed cells with DNAse-free RNAse in PBS containing 5 ug/ml PI. Assay of Annexin V binding by flow cytometry was performed essentially as described for human lung fibroblasts in Uhal, et al., Am. J. Physiol. 275:L998-L1005 (1998) after trypsinization of cells from culture vessels. Assay of Caspase-3 activity was performed on viable suspension cultures as reported in Uhal, et al., Am. J. Physiol. 275:L1013-1017 (1998). In all assays, detached cells were retained by centrifugation of the culture vessels during fixation with 70% ethanol, or by retention of culture media and recovery by centrifugation before assay.
# For microscopy, cells were cultured on glass cover slips, incubated with test reagents and fixed with 70% ethanol. The fixed cells were immunolabeled overnight at 4° C. with monoclonal antibodies to cytokeratins 7 and 19 (Chemicon International, Temecula, Calif.), and then for one hour at 37° C. with anti-mouse IgG-rhodamine and DNAse-free RNAse (Boehringer Mannheim, Indianapolis, Ind.) The cover slips were then rinsed in distilled water three times and mounted under Fluoromount Solution (Southern Biotechnology Associates, Birmingham, Ala.) containing 5 ug/ml propidium iodide. Photomicroscopy was performed as described in Uhal, et al., Am. J. Physiol. 275:L1013-1017 (1998).
# Apoptosis in alveolar epithelial cells was quantitated by fluorescence detection of chromatin condensation and nuclear fragmentation in alcohol-fixed cells stained with propidium iodide. See Uhal, et al., Am. J. Physiol. 275:L1013-1017 (1998). […] After 20 h, the culture vessel was centrifuged to retain detached cells and labeled with anticytokeratin antibodies and propidium iodide. […] Double labeling with PI and monoclonal antibodies to cytokeratins 7 and 19 identified cells with both apoptotic nuclear morphology and positive anticytokeratin immunoreactivity.
Structure (SMILES),inhibition of ANGII-induced apoptosis of A549 cells (A549 cells),inhibition of ANGII-induced apoptosis of primary rat AEC (primary rat AEC)
COc1ccc2c(c1OCc1ccccc1)C[C@@H](C(=O)O)N(C(=O)C(c1ccccc1)c1ccccc1)C2 [PD126055],unable to significantly inhibit,unable to significantly inhibit
CNCC(=O)N[C@@H](CCCN=C(N)N)C(=O)N[C@H](C(=O)N[C@@H](Cc1ccc(O)cc1)C(=O)N[C@H](C(=O)N[C@@H](Cc1cnc[nH]1)C(=O)N1CCC[C@H]1C(=O)N[C@@H](C)C(=O)O)C(C)C)C(C)C [saralasin],completely inhibited,completely inhibited
NCCCC[C@H](N[C@@H](CCc1ccccc1)C(=O)O)C(=O)N1CCC[C@H]1C(=O)O [lisinopril],,did not block
CCc1nc2c(C)cc(C)nc2n1Cc1ccc(-c2ccccc2-c2nn[nH]n2)cc1 [L158809],could block,could block
